Source: patent publication US9687479B2, “Multisubstituted aromatic compounds as serine protease inhibitors” (VERSEON CORPORATION, priority 2013, dated 2017)

Each molecule was assayed against Human thrombin (Homo sapiens (Human), UniProt P00734) (assay: Thrombin protease activity inhibition assay (chromogenic substrate S-2238)). Details: 3 nM thrombin, 125 μM S-2238, 10 min pre-incubation, RT.
Type: biochemical
Outline: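 Thrombin at 3 nM final in 0.05 M Tris pH 7.4, 0.015 M NaCl, 0.01% PEG-8000, at room temperature; compounds as ten-point three-fold dilutions.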

IC50, < 0.1 µM:
O=C(c1ccc(N2CCOCC2)cc1)n1nc(-c2cccn(Cc3ccco3)c2=O)cc1NCc1ccc(Cl)s1 [Cmpd 209, 3-(5-[(5-chlorothiophen-2-yl)methyl]amino-1-[4-(morpholin-4-yl)phenyl]carbonyl-1H-pyrazol-3-yl)-1-(furan-2-ylmethyl)-1,2-dihydropyridin-2-one]
O=C(c1ccc(N2CCOCC2)cc1)n1nc(-c2cccn(Cc3cccnn3)c2=O)cc1NCc1ccc(Cl)s1 [Cmpd 211, 3-(5-[(5-chlorothiophen-2-yl)methyl]amino-1-[4-(morpholin-4-yl)phenyl]carbonyl-1H-pyrazol-3-yl)-1-(pyridazin-3-ylmethyl)-1,2-dihydropyridin-2-one]
O=C(c1ccc(N2CCOCC2)cc1)n1nc(-c2cccn(Cc3ccccn3)c2=O)cc1NCc1ccc(Cl)s1 [Cmpd 212, 3-(5-[(5-chlorothiophen-2-yl)methyl]amino-1-[4-(morpholin-4-yl)phenyl]carbonyl-1H-pyrazol-3-yl)-1-(pyridin-2-ylmethyl)-1,2-dihydropyridin-2-one]
O=C(c1ccc(N2CCOCC2)cc1)n1nc(-c2cccn(Cc3ncccn3)c2=O)cc1NCc1ccc(Cl)s1 [Cmpd 215, 3-(5-[(5-chlorothiophen-2-yl)methyl]amino-1-[4-(morpholin-4-yl)phenyl]carbonyl-1H-pyrazol-3-yl)-1-(pyrimidin-2-ylmethyl)-1,2-dihydropyridin-2-one]
O=C(c1ccc(N2CCOCC2)cc1)n1nc(-c2cccn(Cc3cccs3)c2=O)cc1NCc1ccc(Cl)s1 [Cmpd 216, 3-(5-[(5-chlorothiophen-2-yl)methyl]amino-1-[4-(morpholin-4-yl)phenyl]carbonyl-1H-pyrazol-3-yl)-1-(thiophen-2-ylmethyl)-1,2-dihydropyridin-2-one]
O=C(c1ccc(N2CCOCC2)cc1)n1nc(-c2cccn(Cc3ccsc3)c2=O)cc1NCc1ccc(Cl)s1 [Cmpd 217, 3-(5-[(5-chlorothiophen-2-yl)methyl]amino-1-[4-(morpholin-4-yl)phenyl]carbonyl-1H-pyrazol-3-yl)-1-(thiophen-3-ylmethyl)-1,2-dihydropyridin-2-one]
Nc1ccccc1C(=O)n1nc(-c2ccc[nH]c2=O)cc1NCc1ccc(Cl)s1 [Cmpd 241, 3-1-[(2-aminophenyl)carbonyl]-5-[(5-chlorothiophen-2-yl)methyl]amino-1H-pyrazol-3-yl-1,2-dihydropyridin-2-one]
O=C(c1ccccc1Cl)n1nc(-c2cccn(Cc3cccnn3)c2=O)cc1NCc1ccc(Cl)s1 [Cmpd 245, 3-1-[(2-chlorophenyl)carbonyl]-5-[(5-chlorothiophen-2-yl)methyl]amino-1H-pyrazol-3-yl-1-(pyridazin-3-ylmethyl)-1,2-dihydropyridin-2-one]

IC50, 10 to 100 µM:
O=c1c(-c2cc(NCc3ccc(Cl)s3)[nH]n2)cccn1Cc1nnn[nH]1 [Cmpd 219, 3-(5-[(5-chlorothiophen-2-yl)methyl]amino-1H-pyrazol-3-yl)-1-(1H-1,2,3,4-tetrazol-5-ylmethyl)-1,2-dihydropyridin-2-one]
COCCn1cccc(-c2cc(NCc3ccc(Cl)s3)n[nH]2)c1=O [Cmpd 220, 3-(5-[(5-chlorothiophen-2-yl)methyl]amino-1H-pyrazol-3-yl)-1-(2-methoxyethyl)-1,2-dihydropyridin-2-one]
O=c1c(-c2cc(NCc3ccc(Cl)s3)[nH]n2)cccn1CCc1ccccc1 [Cmpd 221, 3-(5-[(5-chlorothiophen-2-yl)methyl]amino-1H-pyrazol-3-yl)-1-(2-phenylethyl)-1,2-dihydropyridin-2-one]
O=c1c(-c2cc(NCc3ccc(Cl)s3)[nH]n2)cccn1Cc1cccnn1 [Cmpd 226, 3-(5-[(5-chlorothiophen-2-yl)methyl]amino-1H-pyrazol-3-yl)-1-(pyridazin-3-ylmethyl)-1,2-dihydropyridin-2-one]
O=c1c(-c2cc(NCc3ccc(Cl)s3)[nH]n2)cccn1CCN1CCOCC1 [Cmpd 234, 3-(5-[(5-chlorothiophen-2-yl)methyl]amino-1H-pyrazol-3-yl)-1-[2-(morpholin-4-yl)ethyl]-1,2-dihydropyridin-2-one]
Cn1cccc(-c2cc(NCc3ccc(Cl)s3)n[nH]2)c1=O [Cmpd 236, 3-(5-[(5-chlorothiophen-2-yl)methyl]amino-1H-pyrazol-3-yl)-1-methyl-1,2-dihydropyridin-2-one]

IC50, > 100 µM:
O=c1c(-c2cc(NCc3ccc(Cl)s3)[nH]n2)cccn1Cc1ccco1 [Cmpd 222, 3-(5-[(5-chlorothiophen-2-yl)methyl]amino-1H-pyrazol-3-yl)-1-(furan-2-ylmethyl)-1,2-dihydropyridin-2-one]
O=c1c(-c2cc(NCc3ccc(Cl)s3)[nH]n2)cccn1Cc1cccc2ccccc12 [Cmpd 224, 3-(5-[(5-chlorothiophen-2-yl)methyl]amino-1H-pyrazol-3-yl)-1-(naphthalen-1-ylmethyl)-1,2-dihydropyridin-2-one]
O=c1c(-c2cc(NCc3ccc(Cl)s3)[nH]n2)cccn1Cc1ccc2ccccc2c1 [Cmpd 225, 3-(5-[(5-chlorothiophen-2-yl)methyl]amino-1H-pyrazol-3-yl)-1-(naphthalen-2-ylmethyl)-1,2-dihydropyridin-2-one]
O=c1c(-c2cc(NCc3ccc(Cl)s3)[nH]n2)cccn1Cc1ncccn1 [Cmpd 230, 3-(5-[(5-chlorothiophen-2-yl)methyl]amino-1H-pyrazol-3-yl)-1-(pyrimidin-2-ylmethyl)-1,2-dihydropyridin-2-one]
CN(C)c1cc(-c2ccc[nH]c2=O)nn1C(=O)c1ccco1 [Cmpd 239, 3-[5-(dimethylamino)-1-[(furan-2-yl)carbonyl]-1H-pyrazol-3-yl]-1,2-dihydropyridin-2-one]
CN(C)c1cc(-c2cccn(Cc3ccccn3)c2=O)nn1C(=O)c1ccco1 [Cmpd 240, 3-[5-(dimethylamino)-1-[(furan-2-yl)carbonyl]-1H-pyrazol-3-yl]-1-(pyridin-2-ylmethyl)-1,2-dihydropyridin-2-one]

IC50, 1 to 10 µM:
O=c1c(-c2cc(NCc3ccc(Cl)s3)[nH]n2)cccn1Cc1ccoc1 [Cmpd 223, 3-(5-[(5-chlorothiophen-2-yl)methyl]amino-1H-pyrazol-3-yl)-1-(furan-3-ylmethyl)-1,2-dihydropyridin-2-one]
O=c1c(-c2cc(NCc3ccc(Cl)s3)n[nH]2)cccn1Cc1cccnc1 [Cmpd 228, 3-(5-[(5-chlorothiophen-2-yl)methyl]amino-1H-pyrazol-3-yl)-1-(pyridin-3-ylmethyl)-1,2-dihydropyridin-2-one]
O=c1c(-c2cc(NCc3ccc(Cl)s3)n[nH]2)cccn1Cc1cccs1 [Cmpd 231, 3-(5-[(5-chlorothiophen-2-yl)methyl]amino-1H-pyrazol-3-yl)-1-(thiophen-2-ylmethyl)-1,2-dihydropyridin-2-one]
O=c1c(-c2cc(NCc3ccc(Cl)s3)[nH]n2)cccn1Cc1ccsc1 [Cmpd 232, 3-(5-[(5-chlorothiophen-2-yl)methyl]amino-1H-pyrazol-3-yl)-1-(thiophen-3-ylmethyl)-1,2-dihydropyridin-2-one]
O=C(Cn1cccc(-c2cc(NCc3ccc(Cl)s3)n[nH]2)c1=O)N1CCOCC1 [Cmpd 233, 3-(5-[(5-chlorothiophen-2-yl)methyl]amino-1H-pyrazol-3-yl)-1-[2-(morpholin-4-yl)-2-oxoethyl]-1,2-dihydropyridin-2-one]
